By IC50 is commonly meant the midpoint of a concentration-inhibition curve.

For the experiment, the system named is HER2. In words: HER2 degradation assay with BT-474 cell line (Example 12, FACS). Format: cell-based, human. From the text:
HER2 has emerged as a key target for anticancer drugs due to its intrinsic involvement in the phosphatidylinositol-3-kinase-Akt/protein kinase B (PI3K-Akt) and the mitogen-activated protein kinase (MAPK) pathways, both of which suppress apoptosis and promote tumor cell survival, gene transcription, angiogenesis, cellular proliferation, migration, mitosis, and differentiation. The degradation of HER2 is a measure of efficacy of anticancer therapeutics that target Hsp90. Accordingly, the SDC-TRAP molecules of the invention that comprise a binding moiety that binds Hsp90 were tested in the following HER2 degradation assay.
BT-474 cells (human breast cancer cell line ATCC HTB-20) were obtained from ATCC and seeded into 12-well tissue culture plates at 0.2×10^6/1.8 mL/well. […] Each test compound was titrated in 4-fold dilutions from 5 μM to 78 nM with DMSO and 200 μL of the titration was added to each well of the cell plate. The DMSO final concentration was 0.2%. Cells were incubated overnight at 37° C. in 5% CO2.
Media was decanted from the plate, cells were washed 1× in PBS. 400 μL trypsin (EDTA) per well was added, and the cells were incubated for 2 to 3 minutes. Cells were collected into FACS tubes containing 1 ml culture medium to neutralize the trypsin and were centrifuged for 5 minutes at 1200 rpm. Supernatant was decanted and the cells were resuspended in 5 μL FITC (anti HER2/nu)/200 μL staining buffer (1×PBS+1% FBS+0.05% Sodium Azide)/tube. Controls were 5 μL IgG isotype control and staining buffer only. Tubes were incubated for 30 minutes in the dark at room temperature. 1 mL staining buffer was added to each tube and the tubes were centrifuged for 6 minutes at 1200 rpm. The supernatant was decanted and 300 μL staining buffer was added to each tube, which was store at 4° C. fpr FACS (cytometer) analysis. The cytometer readout was normalized and the potency of each compound is evaluated with IC50 calculated with XLfit™ software.
The molecule `CCc1c2c(nc3ccc(OC(=O)N4CCC(c5nc6cc(-n7c(O)nnc7-c7cc(C(C)C)c(O)cc7O)ccc6n5C)CC4)cc13)-c1cc3c(c(=O)n1C2)COC(=O)C3(O)CC` (stereo not shown) [SDC-TRAP-0095, 4,11-diethyl-4-hydroxy-3,14-dioxo-3,4,12,14-tetrahydro-1H-pyrano[3′,4′:6,7]indolizino[1,2-b]quinolin-9-yl 4-(5-(3-(2,4-dihydroxy-5-isopropylphenyl)-5-hydroxy-4H-1,2,4-triazol-4-yl)-1-methyl-1H-benzo[d]imidazol-2-yl)piperidine-1-carboxylate] displayed an IC50 above 5 µM. The molecule `CCNC(=O)c1nnc(-c2cc(C(C)C)c(O)cc2O)n1-c1ccc(CN2CCC(C(=O)N(C)CCC(=O)OC3(CC)C(=O)OCc4c3cc3n(c4=O)Cc4c-3nc3ccc(O)cc3c4CC)CC2)cc1` (stereo not shown) [SDC-TRAP-0100, 4,11-Diethyl-9-hydroxy-3,14-dioxo-3,4,12,14-tetrahydro-1H-pyrano[3′,4′:6,7]indolizino[1,2-b]quinolin-4-yl 3-(1-(4-(3-(2,4-dihydroxy-5-isopropylphenyl)-5-(ethylcarbamoyl)-4H-1,2,4-triazol-4-yl)benzyl)-N-methylpiperidine-4-carboxamido)propanoate] showed an IC50 of 0.08 µM.

Turning to `CCc1c2c(nc3ccc(O)cc13)-c1cc3c(c(=O)n1C2)COC(=O)C3(CC)OC(=O)N1CCN(C(=O)CCc2ccc(-n3c(O)nnc3-c3cc(C(C)C)c(O)cc3O)cc2)CC1` (stereo not shown) [SDC-TRAP-0060, 4,11-diethyl-9-hydroxy-3,14-dioxo-3,4,12,14-tetrahydro-1H-pyrano[3′,4′:6,7]indolizino[1,2-b]quinolin-4-yl 4-(3-(4-(3-(2,4-dihydroxy-5-isopropylphenyl)-5-hydroxy-4H-1,2,4-triazol-4-yl)phenyl)propanoyl)piperazine-1-carboxylate], the IC50 was above 5 µM. As for `CCc1c2c(nc3ccc(O)cc13)-c1cc3c(c(=O)n1C2)COC(=O)[C@@]3(CC)OC(=O)N1CCC(N2Cc3ccc(-n4c(O)nnc4-c4cc(C(C)C)c(O)cc4O)cc3C2)CC1` [SDC-TRAP-0092, (S)-4,11-diethyl-9-hydroxy-3,14-dioxo-3,4,12,14-tetrahydro-1H-pyrano[3′,4′:6,7]indolizino[1,2-b]quinolin-4-yl 4-(5-(3-(2,4-dihydroxy-5-isopropylphenyl)-5-hydroxy-4H-1,2,4-triazol-4-yl)isoindolin-2-yl)piperidine-1-carboxylate], the midpoint of inhibition, the IC50, lay at 4.71 µM. Consider `CCc1c2c(nc3ccc(OC(=O)N4CCN(c5ccc(-n6c(O)nnc6-c6cc(C(C)C)c(O)cc6O)cn5)CC4)cc13)-c1cc3c(c(=O)n1C2)COC(=O)[C@]3(O)CC` [SDC-TRAP-0090, (S)-4,11-diethyl-4-hydroxy-3,14-dioxo-3,4,12,14-tetrahydro-1H-pyrano[3′,4′:6,7]indolizino[1,2-b]quinolin-9-yl 4-(5-(3-(2,4-dihydroxy-5-isopropylphenyl)-5-hydroxy-4H-1,2,4-triazol-4-yl)pyridin-2-yl)piperazine-1-carboxylate], for which the 50% inhibitory concentration (IC50) worked out at 4.6 µM. `CCc1c2c(nc3ccc(OC(=O)N4CCC(Oc5ccc(-n6c(O)nnc6-c6cc(C(C)C)c(O)cc6O)cc5)CC4)cc13)-c1cc3c(c(=O)n1C2)COC(=O)[C@]3(O)CC` [SDC-TRAP-0011, (S)-4,11-diethyl-4-hydroxy-3,14-dioxo-3,4,12,14-tetrahydro-1H-pyrano[3′,4′:6,7]indolizino[1,2-b]quinolin-9-yl 4-(4-(3-(2,4-dihydroxy-5-isopropylphenyl)-5-hydroxy-4H-1,2,4-triazol-4-yl)phenoxy) piperidine-1-carboxylate] yielded an IC50 above 5 µM. Under `CCNC(=O)c1nnc(-c2cc(C(C)C)c(O)cc2O)n1-c1ccc(C(=O)N2CCN(c3ccc(OC(=O)Nc4cccc5c4CN(C4CCC(=O)NC4=O)C5=O)c(OC)c3)CC2)cc1` (stereo not shown) [SDC-TRAP-0173, 4-(4-(4-(3-(2,4-dihydroxy-5-isopropylphenyl)-5-(ethylcarbamoyl)-4H-1,2,4-triazol-4-yl)benzoyl)piperazin-1-yl)-2-methoxyphenyl (2-(2,6-dioxopiperidin-3-yl)-1-oxoisoindolin-4-yl)carbamate] stands 0.323 µM.

These data come from US10828315B2 (Madrigal Pharmaceuticals, Inc., priority 2013, dated 2020).
